Source: PubChem BioAssay (NCI)
Several values for one entry are separate records, joined by “and”; a condition that tells them apart may be missing. Equal entries are not always repeated.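 96-well plates; 48 h exposure; 5 concentrations. Endpoints by linear interpolation between flanking doses. Not reached: highest tested concentration assigned. GI50: concentration for 50% inhibition of growth. TGI is the concentration that stops growth completely.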

Columns and labels:
Test in all cases: DTP human tumour cell line panel, 48 h
RXF 393 renal = test system: RXF 393 renal
UO-31 renal = test system: UO-31 renal
DLD-1 colon = test system: DLD-1 colon
CCRF-CEM leukemia = test system: CCRF-CEM leukemia
NCI-H522 lung = test system: NCI-H522 lung
EKVX NSCLC = test system: EKVX NSCLC
SN12C renal = test system: SN12C renal
LOX IMVI melanoma = test system: LOX IMVI melanoma
HOP-62 NSCLC = test system: HOP-62 NSCLC
A498 renal = test system: A498 renal

Compound	TGI (RXF 393 renal)	TGI (UO-31 renal)	TGI (DLD-1 colon) [µM]	TGI (CCRF-CEM leukemia)	TGI (NCI-H522 lung)	TGI (EKVX NSCLC)	TGI (SN12C renal)	TGI (LOX IMVI melanoma)	TGI (HOP-62 NSCLC)	TGI (A498 renal) [µM]	GI50 (RXF 393 renal)	GI50 (NCI-H522 lung)	GI50 (LOX IMVI melanoma) [µM]	GI50 (UO-31 renal) [µM]	GI50 (DLD-1 colon) [µM]	GI50 (CCRF-CEM leukemia) [µM]	GI50 (EKVX NSCLC) [µM]	GI50 (SN12C renal) [µM]	GI50 (HOP-62 NSCLC) [µM]
O=C(/C=C/c1ccc(OCC(=O)N2CCN(c3ccccc3)CC2)cc1)c1ccccc1	51.6 µM	> 62 µM	> 100	> 25.6 µM	> 56.8 µM	98.9 µM	> 100 µM	10.7 µM	> 100 µM	> 100									
COC(=O)/C(=C/c1ccc(OC)cc1)c1cc(OC)c(OC)c(OC)c1	3.38 µM	74.9 µM	> 100	> 55.7 µM	4.58 µM	> 100 µM	> 100 µM	> 100 µM	> 51.2 µM	> 39									
Cc1c2cc[n+](C)cc2c(C)c2c1[nH]c1ccc(Oc3ccccc3)cc12	> 100 µM and 59.4 µM	40 µM and > 38.1 µM	> 100	18.6 µM and 22.9 µM	12.1 µM and 8.56 µM	> 100 µM and 51.7 µM	> 100 µM	11.3 µM and 50.1 µM	38 µM and 26.3 µM	> 100	> 100 µM and 11 µM	2.41 µM and 0.743 µM	2.96						
COc1cccc(OC)c1/C=N\N1C(=O)c2ccccc2C1=O	62.1 µM	> 100 µM	> 100	> 100 µM		> 100 µM	> 100 µM	> 100 µM	> 100 µM	> 100									
CN1C/C(=C\c2ccco2)c2nc(N)nc(-c3ccco3)c2C1	> 100 µM	> 100 µM	> 100	> 100 µM	> 100 µM	> 100 µM	> 100 µM	> 100 µM	> 100 µM	> 100									
O=C1NC2(CCCCC2)C2=C1CCCCC2	> 100 µM	> 100 µM	> 100	> 100 µM	> 100 µM	> 100 µM	> 100 µM	> 100 µM	> 100 µM	> 100									
CCCCCCCCCCCCCCCC(=O)NCC(OCC)OCC	> 100 µM	> 100 µM	> 100	> 100 µM	> 100 µM	> 100 µM	> 100 µM	> 100 µM	> 100 µM										
Cc1c(C(=O)C/C(=N/NC(=O)CC#N)C(N)=O)[n+](=O)c2ccccc2n1[O-]	> 100 µM	> 100 µM	> 100	> 100 µM	51.6 µM	> 100 µM	97.7 µM	> 100 µM	> 100 µM	> 100									
O=C1COc2cc3c(cc2N1)SCC(=O)N3		> 100 µM	> 100	> 100 µM	> 100 µM	> 100 µM			> 100 µM										
CC1=C2[C@@H](c3ccccc3)C3C=CC2(C=C3C(F)(F)F)N(C(=O)NC2CCCCC2)C1=O (stereo partly drawn)	> 100 µM	> 100 µM	> 100	> 100 µM		> 100 µM	> 100 µM	> 100 µM	> 100 µM	> 100									
CC(=O)OCc1cc2c(s1)C(=O)c1sccc1C2=O	0.31 µM	0.391 µM	0.342		0.295 µM	0.36 µM	0.261 µM	0.0468 µM		3.23									
O=C(O)C12C3C4C1C1C2C3C41I (stereo not drawn)		> 100 µM	> 100	> 100 µM	> 100 µM	> 100 µM	> 100 µM	> 100 µM	> 100 µM	> 100									
COC(=O)CCSC(=O)Nc1ccccc1Cl		> 100 µM	> 100	> 100 µM	28.1 µM	> 100 µM	> 100 µM	> 100 µM	> 100 µM	> 100									
O=C(CO[N+](=O)[O-])OCC(=O)c1ccccc1	> 100 µM	> 100 µM	> 100	> 100 µM	> 100 µM	> 100 µM	> 100 µM	> 100 µM	> 100 µM										
CC(C)=NO.CC(C)=NO.CC(C)=NO.CC(C)=NO.[Ti]	> 100 µM	> 100 µM	> 100	> 100 µM	> 100 µM	> 100 µM	> 100 µM	> 100 µM	> 100 µM		> 100 µM	> 100 µM	> 100	> 100	> 100	> 100	> 100	> 100	> 100
CCOC(=O)C1C(=O)C(=O)N2CCc3c([nH]c4ccccc34)C12 (stereo not drawn)	> 100 µM	> 100 µM	> 100	> 100 µM	> 100 µM	> 100 µM	> 100 µM		> 100 µM	> 100									

Compound	TGI (RXF 393 renal)	TGI (UO-31 renal)	TGI (DLD-1 colon) [µM]	TGI (CCRF-CEM leukemia)	TGI (NCI-H522 lung)	TGI (EKVX NSCLC)	TGI (SN12C renal)	TGI (LOX IMVI melanoma)	TGI (HOP-62 NSCLC)	TGI (A498 renal) [µM]	GI50 (RXF 393 renal)	GI50 (NCI-H522 lung)	GI50 (LOX IMVI melanoma) [µM]	GI50 (UO-31 renal) [µM]	GI50 (DLD-1 colon) [µM]	GI50 (CCRF-CEM leukemia) [µM]	GI50 (EKVX NSCLC) [µM]	GI50 (SN12C renal) [µM]	GI50 (HOP-62 NSCLC) [µM]
CCNC(=O)O/N=C1/C=C2CC[C@@H]3C(CC[C@@]4(C)C3CC[C@@H]4OC(=O)NCC)[C@@]2(C)CC1 (stereo partly drawn)	5.3 µM	3.46 µM	> 100		4.77 µM	16.2 µM	14.6 µM	11.9 µM	> 100 µM	> 100									
O=[N+]([O-])c1cccc(C2=NOC3CCCC23)c1 (stereo not drawn)		> 100 µM	> 100	> 100 µM	> 100 µM	> 100 µM	> 100 µM		> 100 µM	> 100									
O=C(Nc1ccccc1)Oc1ccccc1C1CCCCC1	21.9 µM	74.3 µM	> 100	67.3 µM		85.4 µM	41.1 µM	26.8 µM	59.6 µM	> 100									
Cn1nc(-c2ccccc2)c(C(=O)/C=C/c2ccccc2)c(N2CCCC2)c1=O	23.9 µM	38.7 µM	34.2	40.6 µM	23.7 µM	53.5 µM	77.6 µM	88.2 µM	24.2 µM	26.9									
CN(C)c1ccc(/C=C2\Cc3ccccc3C2=O)cc1Br		> 100 µM	> 100	> 100 µM	70.6 µM	> 100 µM	> 100 µM		> 100 µM	> 100									
CC1CC2C(=O)N(c3ccccc3)C(=O)C2c2[nH]c3ccccc3c21 (stereo not drawn)	> 100 µM		> 100	> 100 µM		> 100 µM	> 100 µM	> 100 µM		> 100									
O=[N+]([O-])C1(CO)COC(CCc2ccccc2)OC1 (stereo not drawn)	> 100 µM	> 100 µM	> 100	> 100 µM	> 100 µM	> 100 µM	> 100 µM	> 100 µM	> 100 µM										
Cn1ncc2c(c1=O)Nc1ccccc1S2(=O)=O		> 100 µM	> 100	> 100 µM	> 100 µM	> 100 µM	> 100 µM	> 100 µM	> 100 µM	> 100									
NC1CC(n2ccc(=O)[nH]c2=O)OC1C(O)CO (stereo not drawn)	> 100 µM	> 100 µM	> 100	> 100 µM	> 100 µM	> 100 µM	> 100 µM	> 100 µM	> 100 µM										
COC(=O)c1ccccc1NCc1cc(O)ccc1O	30.3 µM	31.9 µM	43	> 46.3 µM	6.75 µM	> 68.1 µM	36.9 µM	32 µM	> 71.4 µM	> 89.2									
NC(=O)NC(=O)C1CCC(=O)N1S(=O)(=O)c1ccc(Cl)cc1 (stereo not drawn)	> 100 µM	> 100 µM	> 100	> 100 µM	> 100 µM	> 100 µM	> 100 µM		> 100 µM										
Cc1c(N)nc(C2CC(=O)N2CC(N)C(N)=O)nc1C(=O)NC(C(=O)NC(C)C(O)C(C)C(=O)NC(C(=O)NCCc1nc(-c2nc(C(=O)NCCNCC(C)O)cs2)cs1)C(C)O)C(OC1OC(CO)C(O)C(O)C1OC1OC(CO)C(O)C(OC(N)=O)C1O)c1cnc[nH]1 (stereo not drawn)	0.425 µM	17 µM and 21.6 µM	> 100	50 µM and > 33 µM	10.8 µM and 7.89 µM	> 88.9 µM	36.4 µM and 27 µM	9.28 µM and 8.16 µM	6.25 µM and 0.914 µM	> 46.6		0.972 µM	0.712	0.974		12.6	> 50	5.33	0.188
CCOC(=O)Oc1ccc2[nH]c3c(C)cc(N)c(C)c3c2c1		> 100 µM	> 100	> 100 µM	> 100 µM	> 100 µM	> 100 µM	> 100 µM	> 100 µM										
CCOC(=O)/C(=C/c1ccc[nH]1)P(=O)(OCC)OCC	> 100 µM	> 100 µM	> 100	> 100 µM	> 100 µM	> 100 µM	> 100 µM	> 100 µM	> 100 µM										
Cc1nc(-c2cccnc2)sc1C(=O)/C=C/c1ccc(Cl)cc1Cl	> 100 µM	> 100 µM	> 100	> 100 µM	> 100 µM	> 100 µM	> 100 µM	> 100 µM	> 100 µM	> 100									
CCOC(=O)C1=C(O)c2c(OC)ccc(OC)c2C(=O)C1=O	> 100 µM	> 100 µM	> 100	> 100 µM	> 100 µM	> 100 µM	> 100 µM	> 100 µM	> 100 µM	> 100									
